Source: patent publication US10577378B2, “EIF4A-inhibiting compounds and methods related thereto” (eFFECTOR Therapeutics, Inc., priority 2015, dated 2020)

These compounds were tested on MDA-MB-231 human breast cancer cells (assay: Cell proliferation assay (CellTiter-Glo, 72 hours treatment)). Conditions: Homo sapiens; MDA-MB-231 cells, 72 hours at 37° C., CellTiter-Glo; read-out: MDA-MB-231 cell proliferation assay (IC50).
Type: cell-based
How it was run: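 IC50 categories: under 100 nM +++, 100–1000 nM ++, above 1000 nM +, derived by sigmoidal curve fitting of CellTiter-Glo luminescence. Cells plated at 2,500 per well, dosed the following day and exposed 72 h at 37 °C versus DMSO control.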

| Structure (SMILES) | IC50 [nM] |
| --- | --- |
| CN(C)C(=O)[C@@H]1[C@@H](c2ccccc2)[C@]2(c3ccc(C#N)cc3)Oc3cc(Cl)cnc3[C@]2(O)[C@]1(C)O (racemic) [33Fa, Rac-(5aR,6S,7R,8R,8aS)-3-chloro-5a-(4-cyanophenyl)-8,8a-dihydroxy-N,N,8-trimethyl-6-phenyl-5a,7,8,8a-tetrahydro-6H-cyclopenta[4,5]furo[3,2-b]pyridine-7-carboxamide] | 100 to 1000 |
| COc1nc(Cl)cc2c1[C@]1(O)[C@H](O)[C@H](CN(C)CC(F)F)[C@@H](c3ccccc3)[C@]1(c1ccc(C#N)cc1)O2 (racemic) [208Fb, Rac-4-((5aR,6S,7S,8R,8aS)-3-chloro-7-(((2,2-difluoroethyl)(methyl)amino)methyl)-8,8a-dihydroxy-1-methoxy-6-phenyl-6,7,8,8a-tetrahydro-5aH-cyclopenta[4,5]furo[3,2-c]pyridin-5a-yl)benzonitrile] | 100 to 1000 |
| CN(C)C(=O)[C@H]1[C@@H](O)[C@@]2(O)c3ncc(Cl)cc3O[C@@]2(c2ccc(OC(F)(F)F)cc2)[C@@H]1c1ccccc1 (single isomer, unassigned) [17F] | 100 to 1000 |
| N#Cc1ccc([C@@]23Oc4cc(Cl)cnc4[C@]2(O)[C@H](O)[C@H](S(=O)(=O)N2CCCC2)[C@H]3c2ccccc2)cc1 (single isomer, unassigned) [83F] | < 100 |
| COc1nc(C#N)cc2c1[C@]1(O)[C@H](O)[C@H](CN3CCCC(F)(F)C3)[C@@H](c3ccccc3)[C@]1(c1ccc(C#N)cc1)O2 (racemic) [154F, Rac-(5aR,6S,7S,8R,8aS)-5a-(4-cyanophenyl)-7-((3,3-difluoropiperidin-1-yl)methyl)-8,8a-dihydroxy-1-methoxy-6-phenyl-5a,7,8,8a-tetrahydro-6H-cyclopenta[4,5]furo[3,2-c]pyridine-3-carbonitrile] | 100 to 1000 |
| COc1nc(C#N)cc2c1[C@]1(O)[C@H](O)[C@H](CNCC(F)F)[C@@H](c3ccccc3)[C@]1(c1ccc(C#N)cc1)O2 (racemic) [197F, Rac-(5aR,6S,7S,8R,8aS)-5a-(4-cyanophenyl)-7-(((2,2-difluoroethyl)amino)methyl)-8,8a-dihydroxy-1-methoxy-6-phenyl-5a,7,8,8a-tetrahydro-6H-cyclopenta[4,5]furo[3,2-c]pyridine-3-carbonitrile] | 100 to 1000 |
| COc1cncc2c1[C@]1(O)[C@@H](CO)C[C@@H](c3ccccc3)[C@]1(c1ccc(C#N)cc1)O2 (single isomer, unassigned) [120F] | < 100 |
| CNC(=O)[C@H]1[C@@H](O)[C@@]2(O)c3ncc(Cl)cc3O[C@@]2(c2ccc(C#N)cc2)[C@@H]1c1ccccc1 (single isomer, unassigned) [20F] | < 100 |
| O=C1O[C@@H]2[C@H]1[C@@H](c1ccccc1)[C@]1(c3ccc(Br)cc3)Oc3cc(Cl)cnc3[C@]21O (racemic) [169F, Rac-(2aR,3S,3aR,8bS,8cR)-3a-(4-bromophenyl)-6-chloro-8b-hydroxy-3-phenyl-3,3a,8b,8c-tetrahydrooxeto[3″,2″:4′,5′]cyclopenta[1′,2′:4,5]furo[3,2-b]pyridin-2(2aH)-one] | > 1000 |
| COc1cncc2c1[C@]1(O)[C@H](O)[C@H](CN(C)C3CC3)[C@@H](c3ccccc3)[C@]1(c1ccc(C#N)cc1)O2 (racemic) [246F, Rac-4-((4bS,5R,6S,7S,7aR)-6-((cyclopropyl(methyl)amino)methyl)-4b,5-dihydroxy-4-methoxy-7-phenyl-4b,5,6,7-tetrahydro-7aH-cyclopenta[4,5]furo[2,3-c]pyridin-7a-yl)benzonitrile] | 100 to 1000 |
| O=S(=O)(Cc1ccccc1)[C@H]1[C@@H](O)[C@@]2(O)c3ncc(Cl)cc3O[C@@]2(c2ccc(Br)cc2)[C@@H]1c1ccccc1 (racemic) [93F, Rac-(5aR,6S,7R,8S,8aS)-7-(benzylsulfonyl)-5a-(4-bromophenyl)-3-chloro-6-phenyl-5a,6,7,8-tetrahydro-8aH-cyclopenta[4,5]furo[3,2-b]pyridine-8,8a-diol] | > 1000 |
| Cc1ccc(S(=O)(=O)NN=C2C[C@@H](c3ccccc3)[C@]3(c4ccc(Br)cc4)Oc4cc(Cl)cnc4[C@]23O)cc1 (racemic) [132F, Rac-N′-((5aR,6S,8aS)-5a-(4-bromophenyl)-3-chloro-8a-hydroxy-6-phenyl-5a,6,7,8a-tetrahydro-8H-cyclopenta[4,5]furo[3,2-b]pyridin-8-ylidene)-4-methylbenzenesulfonohydrazide] | > 1000 |
| COc1nc(C#N)cc2c1[C@]1(O)[C@H](O)[C@H](CN3CC(F)(F)C3)[C@@H](c3ccccc3)[C@]1(c1ccc(C#N)cc1)O2 [288F, (5aR,6S,7S,8R,8aS)-5a-(4-cyanophenyl)-7-((3,3-difluoroazetidin-1-yl)methyl)-8,8a-dihydroxy-1-methoxy-6-phenyl-5a,7,8,8a-tetrahydro-6H-cyclopenta[4,5]furo[3,2-c]pyridine-3-carbonitrile] | < 100 |
| COC(=O)[C@@]12C[C@@H]1[C@@]1(O)c3ncc(Cl)cc3O[C@@]1(c1ccc(Br)cc1)[C@@H]2c1ccccc1 (racemic) [24F, rac-methyl (5aR,6R,6aS,7aS,7bR)-5a-(4-bromophenyl)-3-chloro-7b-hydroxy-6-phenyl-5a,7,7a,7b-tetrahydrocyclopropa[4′,5′]cyclopenta[1′,2′:4,5]furo[3,2-b]pyridine-6a(6H)-carboxylate] | > 1000 |
| COc1cncc2c1[C@]1(O)[C@@H]3OC(=O)N[C@@H]3[C@@H](c3ccccc3)[C@]1(c1ccc(C#N)cc1)O2 (single isomer, unassigned) [81F] | < 100 |
| N#Cc1ccc([C@@]23Oc4cc(Cl)cnc4[C@]2(O)[C@H](O)[C@H](Sc2ccccn2)[C@H]3c2ccccc2)cc1 (racemic) [189F, Rac-4-((5aR,6S,7R,8S,8aS)-3-chloro-8,8a-dihydroxy-6-phenyl-7-(pyridin-2-ylthio)-6,7,8,8a-tetrahydro-5aH-cyclopenta[4,5]furo[3,2-b]pyridin-5a-yl)benzonitrile] | 100 to 1000 |
| CN(C)C[C@@H]1[C@@H](O)[C@@]2(O)c3ncc(Cl)cc3O[C@@]2(c2ccc(C(F)F)cc2)[C@@H]1c1ccccc1 (single isomer, unassigned) [108F] | 100 to 1000 |
| COc1nc(Cl)cc2c1[C@]1(O)[C@H](O)[C@H](CN)[C@@H](c3ccccc3)[C@]1(c1ccc(Br)cc1)O2 (racemic) [292F, Rac-(5aR,6S,7S,8R,8aS)-7-(aminomethyl)-5a-(4-bromophenyl)-3-chloro-1-methoxy-6-phenyl-5a,6,7,8-tetrahydro-8aH-cyclopenta[4,5]furo[3,2-c]pyridine-8,8a-diol] | < 100 |
| CN(Cc1ccccc1)S(=O)(=O)[C@H]1[C@@H](O)[C@@]2(O)c3ncc(Cl)cc3O[C@@]2(c2ccc(Br)cc2)[C@@H]1c1ccccc1 (racemic) [123F, rac-(5aR,6S,7R,8S,8aS)—N-benzyl-5a-(4-bromophenyl)-3-chloro-8,8a-dihydroxy-N-methyl-6-phenyl-5a,7,8,8a-tetrahydro-6H-cyclopenta[4,5]furo[3,2-b]pyridine-7-sulfonamide] | 100 to 1000 |
| CN(C)C(=O)[C@H]1[C@@H](O)[C@@]2(O)c3ncc(Cl)cc3O[C@@]2(c2ccc(Cl)cc2)[C@@H]1c1ccccc1 (single isomer, unassigned) [11F] | 100 to 1000 |
| N#Cc1ccc([C@@]23Oc4cc(Cl)cnc4[C@]2(O)[C@@H](CO)C[C@H]3c2ccccc2)cc1 (racemic) [167F, Rac-4-((5aR,6S,8R,8aR)-3-chloro-8a-hydroxy-8-(hydroxymethyl)-6-phenyl-6,7,8,8a-tetrahydro-5aH-cyclopenta[4,5]furo[3,2-b]pyridin-5a-yl)benzonitrile] | 100 to 1000 |
| COc1cncc2c1[C@]1(O)[C@H](O)[C@H](CNCC(F)(F)F)[C@@H](c3ccccc3)[C@]1(c1ccc(C#N)cc1)O2 [291F, 4-((4bS,5R,6S,7S,7aR)-4b,5-dihydroxy-4-methoxy-7-phenyl-6-(((2,2,2-trifluoroethyl)amino)methyl)-4b,5,6,7-tetrahydro-7aH-cyclopenta[4,5]furo[2,3-c]pyridin-7a-yl)benzonitrile] | 100 to 1000 |
| COc1cncc2c1[C@]1(O)[C@H](O)[C@H](C(=O)N3[C@@H]4CCC[C@H]3CC4)[C@@H](c3ccccc3)[C@]1(c1ccc(Br)cc1)O2 (racemic) [114F, Rac-((1R,5S)-8-azabicyclo[3.2.1]octan-8-yl)((4bS,5R,6R,7S,7aR)-7a-(4-bromophenyl)-4b,5-dihydroxy-4-methoxy-7-phenyl-4b,6,7,7a-tetrahydro-5H-cyclopenta[4,5]furo[2,3-c]pyridin-6-yl)methanone] | < 100 |
| CN(C)C(=O)[C@H]1[C@@H](O)[C@@]2(O)c3nn(C)c(Cl)c3O[C@@]2(c2ccc(C#N)cc2)[C@@H]1c1ccccc1 (racemic) [36F, Rac-(4aR,5S,6R,7R,7aS)-3-chloro-4a-(4-cyanophenyl)-7,7a-dihydroxy-N,N,2-trimethyl-5-phenyl-2,4a,5,6,7,7a-hexahydrocyclopenta[4,5]furo[3,2-c]pyrazole-6-carboxamide] | > 1000 |
| COc1cncc2c1[C@]1(O)[C@@H](CN3CCOCC3)[C@H](CO)[C@@H](c3ccccc3)[C@]1(c1ccc(C#N)cc1)O2 (racemic) [180F, Rac-4-((4bR,5R,6R,7S,7aR)-4b-hydroxy-6-(hydroxymethyl)-4-methoxy-5-(morpholino-methyl)-7-phenyl-4b,5,6,7-tetrahydro-7aH-cyclopenta[4,5]furo[2,3-c]pyridin-7a-yl)benzonitrile] | < 100 |
| N#Cc1ccc([C@@]23Oc4cc(Cl)cnc4[C@]2(O)[C@H](O)[C@H](c2ncco2)[C@H]3c2ccccc2)cc1 (racemic) [26F, Rac-4-((5aR,6S,7R,8R,8aS)-3-chloro-8,8a-dihydroxy-7-(oxazol-2-yl)-6-phenyl-6,7,8,8a-tetrahydro-5aH-cyclopenta[4,5]furo[3,2-b]pyridin-5a-yl)benzonitrile] | 100 to 1000 |

Same assay, conditions: MDA-MB-231 cells, 72 hours at 37° C., CellTiter-Glo; read-out: MDA-MB-231 cell proliferation assay (IC50)

| IC50 [nM] | Structure (SMILES) |
| --- | --- |
| < 100 | COc1cncc2c1[C@]1(O)[C@H](O)[C@H](CN(C)C)[C@@H](c3ccccc3)[C@]1(c1ccc(C#N)cc1)O2 (single isomer, unassigned) [103F] |
